In patent publication US8927598B2, “Treating oncogenic Ras driven cancers” (Duke University, priority 2008, dated 2015):

Legend:
human eNOS = assay: Knockdown of eNOS expression, immunoblot; assay type: cell-based
Excerpt: The siRNA of SEQ ID NO:1 is produced as follows: Complementary oligonucletides obtained from Integrated DNA Technologies (Coralville, USA) and annealed together were cloned into the Hind III and Bgl II sites of pSUPER-RETRO (OligoEngine, Seattle, Wash.). The sense strand of this insert is identified in the Sequence Listing as SEQ ID NO: 4. Transcription of this sequence by RNA polymerase produces an shRNA having the Sequence Listing as SEQ ID NO: 5. This is processed using Dicer complex to remove the hairpin to give the double stranded RNA sequence of SEQ ID NO: 1 which specifically knocks down the expression of human eNOS Exemplary dosage is 100-1600 micrograms based on a clinical trial of the siRNA compound AGN211745.
A test for determining that eNOS expression is reduced is by immunoblot by using commercially available phosphor-S1177 eNOS antibody.

[1] = system: pancreatic cancer cell line; assay: Tumor growth in SCID-beige mice of pancreatic cancer cell lines stably infected with siRNA plasmid; assay type: in vivo, human; details: cells expressing the siRNA
Method: Methods for creating stably infected cell lines are set below:
Day 1 • Morning—split a 10 cm plate of confluent 293T/17 cells (ATCC CRL-11268) 1:6 in αMEM supplemented with 10% Fetal Calf Serum (FCS) (no antibiotics) into a 10 cm plate so as to be 40-50% confluent at time of transfection.
Day 2 • Morning—mix in tissue culture hood in microcentrifuge tube: 12 μg pCL-10A1, 3 μg pSUPER-RETRO-PURO plasmid (OligoEngine, Seattle, Wash.) engineered to encode eNOS, RNA, NRas siRNA or HRas siRNA, and serum free media to 200 μl total volume. Tap tube side gently to mix and incubate at room temperature 15-45 minutes. Add dropwise to 293T/17 cells with micropipette and incubate overnight at 37° C.
Day 3 • Morning—repeat transfection protocol from day 2. Once the transfection mix is added to the cells, it must be incubated for at least 8 hours. Evening—remove media and replace with 6 ml of cell specific media of cells to be infected.
Day 4 • Morning—split a confluent 10 cm plate of pancreatic cancer cell line to be infected in cell type specific media so that they will reach 25-35% confluency the following morning.
Day 5 • Morning—aspirate media in a 10 ml syringe, attach 0.45 μm acrodisc filter to the bottom of the syringe. Filter the media into a 15 ml conical tube. […]
Method of testing pancreatic cancer cell line for tumor growth is set forth below: • 1. Expand pancreatic cancer cells stably infected with pSUPER-RETRO-PURO plasmid (OligoEngine) engineered to encode eNOS siRNA, NRas siRNA, or HRas siRNA to a total count of at least 1×10^7 cells/mouse, typically 4-8 15 cm tissue culture dishes at full confluency (number of dishes determined by cell size). • 2. […] Weigh each mouse for baseline reading and track tumor progression over the weeks to months by measuring large and small diameters and extrapolating tumor volume utilizing the equation: Tumor Volume=(small diameter)^2[…](large diameter/2).

human HRas = assay: Knockdown of HRas expression, immunoblot; assay type: cell-based
Excerpt: (§1) The siRNA of SEQ ID NO: 3 is produced as follows: Complementary oligonucleotides obtained from Integrated DNA Technologies (Coralville, USA) and annealed together were cloned into the Hind III and Bgl II sites of pSUPER-RETRO (OligoEngine, Seattle, Wash.). The sense strand of this insert is identified in the Sequence Listing as SEQ ID NO: 6. Transcription of this sequence by RNA polymerase produces an shRNA having the sequence identified in the Sequense Listing as SEQ ID NO: 7. This is processed using Dicer complex to remove the hairpin to give the double stranded RNA sequence of SEQ ID NO: 3 which specifically knocks down the expression of human HRas.
A test for determining that HRas expression is reduced is by immunoblot by using commercially available HRas antibody.

human NRas = assay: Knockdown of NRas expression, immunoblot; assay type: cell-based
Excerpt: as §1, with “2” for “3”, “8.” for “6.”, “9.” for “7.”, “NRas.” for “HRas.”
A test for determining that NRas expression is reduced is by immunoblot by using commercially available NRas antibody.

[2] = system: human pancreatic cell line MiaPaCa-2; assay: Tumor growth of MiaPaCa-2 cells injected into SCID-beige mice given L-NAME in drinking water; assay type: in vivo; details: L-NAME 0.5 g/liter in drinking water, vs untreated drinking water
Excerpt: Eight SCID-beige immunocompromised mice. (The Jackson Laboratory, Bar Harbor, Me.). were each injected simultaneously with one million cells of the human pancreatic cell line MiaPaCa-2 (available from the ATCC, identified as ATCC CRL-1420). Then 4 mice were provided with drinking water supplemented with L-NAME at a concentration of 0.5 g/liter and 4 were provided with drinking water that was not supplemented. Measurements were taken at the site of the injection to calculate tumor volume. Results are shown in FIG. 1 which is a graph of Tumor Volume vs. Time in days after injection where the diamonds denote measurements on untreated mice and the triangles denote measurements on L-NAME fed mice.

## SEQ ID NO: 1: novel siRNA generated by the applicant that knocks down the expression of human eNOS (AAGAGUUAUAAGAUCCGCUUC; chemistry not given here; listed as Homo sapiens)
Human eNOS
  Knockdown of expression of human eNOS: efficiently knocks down
[1]
  Tumor initiation and growth of cancer cell lines in mice: blocks tumor initiation and growth

## SEQ ID NO: 3: published siRNA (Yang, G., et al., Oncogene 22, 5694-5701 (2003)) that knocks down the expression of human HRas (GGCAAGAGUGCGCUGACCAUC; listed as RNA, chemistry not given here; listed as Homo sapiens)
Human HRas
  Knockdown of expression of HRas proteins: efficiently knocks down
[1]
  Tumor initiation and growth of cancer cell lines in mice: inhibits tumor growth

## SEQ ID NO: 2: novel siRNA generated by the applicant that knocks down the expression of human NRas (CAAGAAGAGUACAGUGCCAUG; listed as RNA, chemistry not given here; listed as Homo sapiens)
Human NRas
  Knockdown of expression of NRas proteins: efficiently knocks down
[1]
  Tumor initiation and growth of cancer cell lines in mice: inhibits tumor growth

## COC(=O)[C@@H](N)CCCNC(=N)N[N+](=O)[O-] [L-NAME, N^G-nitro-L-arginine methyl ester]
[2]
  Tumor growth (tumor volume vs. time in days after injection): Tumors grew more slowly
[2]; p<0.01
  Reduction in tumor size at termination of the experiment: ~3 fold
